Results taken from patent US20240308973A1, “PHOSPHODIESTERASE 3 (PDE3) INHIBITORS” (Zoetis Services LLC, priority 2023, published 2024).

Tests used:
[1] = molecular target: dog PDE3A recombinant enzyme (Canis lupus familiaris, UniProt A0A8I3NYE0); experiment: cPDE3A assay (fluorescent polarization); assay type: biochemical; conditions: canine PDE3A, read-out: cPDE3 Inhibition (IC50)
Experimental: cPDE3A Assay (Fluorescent Polarization)
The canine PDE3A assay kit was purchased from BPS Bioscience (San Diego, CA) which included dog PDE3A recombinant enzyme, FAM-cyclic-3′,5′-AMP (20 μM), PDE3 assay buffer, binding agent, binding agent diluent and microtiter 96-well plates. Compounds were initially dissolved in DMSO. The stock concentration was subsequently diluted in cPDE assay buffer (10× stock) and serially diluted to give a concentration response curve starting at 10 μM (≥7 total concentrations). Following the serial dilution, compound solution (0.1% final DMSO) was transferred to an assay plate (96-well) where the remaining canine PDE3A assay reagents were dispensed according to the BPS Bioscience® protocol (catalog #79735) procedure using a final concentration of 5 pg/μL of enzyme. Each compound was evaluated for the inhibition of the canine PDE3A enzyme activity using the measurement of fluorescent polarization changes. The 50% inhibition concentration (IC50) nM was calculated and reported.

[2] = Dog plasma half-life after oral dose; assay type: in vivo; conditions: Beagle dogs, oral dose 0.1 mg/kg, plasma over 72 hours, read-out: t½ (hrs), Dog Plasma Compound Half-life (converted)
Experimental: Lastly, plasma half-life was assessed for a number of compounds in dogs. Beagle dogs were given an oral dose (0.1 mg/kg) of the respective compound accounting for a dose amount of about 1 mg/dog. Pimopendan was administered at a 0.3 mg/kg dose.

Chain of dog PDE3A recombinant enzyme (A0A8I3NYE0 1-1135): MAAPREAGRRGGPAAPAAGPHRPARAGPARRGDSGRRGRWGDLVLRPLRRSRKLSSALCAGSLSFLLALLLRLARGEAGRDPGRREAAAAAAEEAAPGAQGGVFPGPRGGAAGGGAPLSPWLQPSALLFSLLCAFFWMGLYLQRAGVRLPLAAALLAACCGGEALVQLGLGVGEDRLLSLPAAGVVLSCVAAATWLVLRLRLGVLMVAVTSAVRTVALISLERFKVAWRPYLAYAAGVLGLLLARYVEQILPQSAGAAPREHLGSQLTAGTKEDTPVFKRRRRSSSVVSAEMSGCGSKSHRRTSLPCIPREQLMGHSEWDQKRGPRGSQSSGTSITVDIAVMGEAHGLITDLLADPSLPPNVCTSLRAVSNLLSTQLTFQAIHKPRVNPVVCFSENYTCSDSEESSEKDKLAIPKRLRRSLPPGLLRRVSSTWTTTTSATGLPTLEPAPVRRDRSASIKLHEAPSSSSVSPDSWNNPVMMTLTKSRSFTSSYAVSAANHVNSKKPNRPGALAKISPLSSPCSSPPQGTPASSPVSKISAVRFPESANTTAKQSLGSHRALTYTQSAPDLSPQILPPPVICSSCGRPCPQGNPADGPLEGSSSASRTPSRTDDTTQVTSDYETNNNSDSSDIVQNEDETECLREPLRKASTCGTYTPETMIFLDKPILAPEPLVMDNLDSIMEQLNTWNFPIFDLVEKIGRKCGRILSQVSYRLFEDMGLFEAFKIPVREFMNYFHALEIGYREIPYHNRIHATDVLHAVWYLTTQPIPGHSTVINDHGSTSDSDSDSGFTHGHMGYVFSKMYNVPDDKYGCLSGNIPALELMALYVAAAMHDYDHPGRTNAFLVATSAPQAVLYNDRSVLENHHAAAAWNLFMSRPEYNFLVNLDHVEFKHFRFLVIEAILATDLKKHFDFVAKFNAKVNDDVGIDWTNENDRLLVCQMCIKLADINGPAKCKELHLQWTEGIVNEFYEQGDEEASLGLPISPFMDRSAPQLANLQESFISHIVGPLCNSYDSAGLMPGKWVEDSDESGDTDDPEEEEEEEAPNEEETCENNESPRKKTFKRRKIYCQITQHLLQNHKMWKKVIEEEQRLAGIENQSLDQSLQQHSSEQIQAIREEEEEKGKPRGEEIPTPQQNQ

## CC1CC(=O)NN=C1c1cc(Cl)c2c(c1)C(C)(C)C(=O)N2 (racemic) [Example #24, 7-chloro-3,3-dimethyl-5-(4-methyl-6-oxo-1,4,5,6-tetrahydropyridazin-3-yl)indolin-2-one]
[1]
  IC50: 5.4 nM
[2]
  half-life: 50 h

## CC1CC(=O)NN=C1c1cc2c(c(-c3cccc(F)c3)c1)NC(=O)CC2 (stereo not shown) [Example #12, 8-(3-fluorophenyl)-6-(4-methyl-6-oxo-1,4,5,6-tetrahydropyridazin-3-yl)-3,4-dihydroquinolin-2 (1H)-one]
[1]
  IC50: 90.9 nM
[2]
  half-life: 10.4 h

## COc1ccc(C2(c3nc4ccc(C5=NNC(=O)CC5C)cc4[nH]3)CC2)cc1 (stereo not shown) [Example #19, 6-(2-(1-(4-methoxyphenyl)cyclopropyl)-1H-benzo[d]imidazol-6-yl)-5-methyl-4,5-dihydropyridazin-3 (2H)-one]
[2]
  half-life: 16 h

## CC1CC(=O)NN=C1c1cc(Br)c2c(c1)C(C)(C)C(=O)N2 (stereo not shown) [Example #23, 7-bromo-3,3-dimethyl-5-(4-methyl-6-oxo-1,4,5,6-tetrahydropyridazin-3-yl)indolin-2-one]
[1]
  IC50: 9.1 nM
[2]
  half-life: 94 h

## CC1(C)C(=O)Nc2c(Cl)cc(-c3ccc(=O)[nH]n3)cc21 [Example #25, 7-chloro-3,3-dimethyl-5-(6-oxo-1,6-dihydropyridazin-3-yl)indolin-2-one]
[1]
  IC50: 15.7 nM
[2]
  half-life: 50 h

## Cc1cc(C2=NNC(=O)SC2C)cc2sc(=O)[nH]c12 (stereo not shown) [Example #55, 4-methyl-6-(6-methyl-2-oxo-3,6-dihydro-2H-1,3,4-thiadiazin-5-yl)benzo[d]thiazol-2 (3H)-one]
[1]
  IC50: 3.8 nM
[2]
  half-life: 3.2 h

## CC1SC(=O)NN=C1c1cc(Cl)c2[nH]c(=O)sc2c1 (stereo not shown) [Example #56, 4-chloro-6-(6-methyl-2-oxo-3,6-dihydro-2H-1,3,4-thiadiazin-5-yl)benzo[d]thiazol-2 (3H)-one]
[1]
  IC50: 3.6 nM
[2]
  half-life: 15 h

## CC1SC(=O)NN=C1c1cc(Cl)c2c(c1)C1(CC1)C(=O)N2 (stereo not shown) [Example #58, 5-(7′-chloro-2′-oxospiro[cyclopropane-1,3′-indolin]-5′-yl)-6-methyl-3,6-dihydro-2H-1,3,4-thiadiazin-2-one]
[1]
  IC50: 8.4 nM
[2]
  half-life: 7 h

## CC1(C)C(=O)Nc2c(F)cc(C3=NNC(=O)SC3)cc21 [Example #59, 5-(7-fluoro-3,3-dimethyl-2-oxoindolin-5-yl)-3,6-dihydro-2H-1,3,4-thiadiazin-2-one]
[1]
  IC50: 22.2 nM
[2]
  half-life: 5.2 h

## CC1(C)C(=O)Nc2c(Cl)cc(C3=NNC(=O)SC3)cc21 [Example #61, 5-(7-chloro-3,3-dimethyl-2-oxoindolin-5-yl)-3,6-dihydro-2H-1,3,4-thiadiazin-2-one]
[2]
  half-life: 8.5 h

## CC1SC(=O)NN=C1c1cc(Cl)c2c(c1)CC(=O)N2 (stereo not shown) [Example #62, 5-(7-chloro-2-oxoindolin-5-yl)-6-methyl-3,6-dihydro-2H-1,3,4-thiadiazin-2-one]
[2]
  half-life: 5 h

## CC1(C)C(=O)Nc2c(Br)cc(C3=NNC(=O)SC3)cc21 [Example #66, 5-(7-bromo-3,3-dimethyl-2-oxoindolin-5-yl)-3,6-dihydro-2H-1,3,4-thiadiazin-2-one]
[1]
  IC50: 24.4 nM
[2]
  half-life: 10.2 h

## O=C1Cc2cc(-c3cc(Cl)c4[nH]c(=O)oc4c3)cnc2N1 [Example #84, 4-chloro-6-(2-oxo-2,3-dihydro-1H-pyrrolo[2,3-b]pyridin-5-yl)benzo[d]oxazol-2 (3H)-one]
[1]
  IC50: 112 nM

## CC1(C)C(=O)Nc2c(Cl)cc(-c3cnc4c(c3)CCC(=O)N4)cc21 [Example #87, 6-(7-chloro-3,3-dimethyl-2-oxoindolin-5-yl)-3,4-dihydro-1,8-naphthyridin-2 (1H)-one]
[1]
  IC50: 3.4 nM

## CC1CC(=O)NN=C1c1ccc2nc(Nc3ccc4ncsc4c3)n(C)c2c1 (stereo not shown) [compound 10, 6-(2-(benzo[d]thiazol-6-ylamino)-1-methyl-1H-benzo[d]imidazol-6-yl)-5-methyl-4,5-dihydropyridazin-3 (2H)-one]
[1]
  IC50: 7.3 nM

## CC1CC(=O)NN=C1c1cc(Br)c2c(c1)C(C)(C)CC(=O)N2 (stereo not shown) [compound 11, 8-bromo-4,4-dimethyl-6-(4-methyl-6-oxo-1,4,5,6-tetrahydropyridazin-3-yl)-3,4-dihydroquinolin-2 (1H)-one]
[1]
  IC50: 51.3 nM

## COc1ccc(-c2cc(C3=NNC(=O)CC3C)cc3c2NC(=O)CC3)cn1 (stereo not shown) [compound 14, 8-(6-methoxypyridin-3-yl)-6-(4-methyl-6-oxo-1,4,5,6-tetrahydropyridazin-3-yl)-3,4-dihydroquinolin-2 (1H)-one]
[1]
  IC50: 50.2 nM

## Cc1cc(C2=NNC(=O)CC2)cc2sc(=O)[nH]c12 [compound 15, 4-methyl-6-(6-oxo-1,4,5,6-tetrahydropyridazin-3-yl)benzo[d]thiazol-2 (3H)-one]
[1]
  IC50: 17.6 nM

## CC1CC(=O)NN=C1c1ccc2nc(Nc3ccc(S(C)(=O)=O)cc3)n(C3CC3)c2c1 (stereo not shown) [compound 16, 6-(1-cyclopropyl-2-((4-(methylsulfonyl)phenyl)amino)-1H-benzo[d]imidazol-6-yl)-5-methyl-4,5-dihydropyridazin-3 (2H)-one]
[1]
  IC50: 5 nM

## CC1CC(=O)NN=C1c1cc2c(c(-c3nccs3)c1)NC(=O)CCC2 (stereo not shown) [compound 20, 7-(4-methyl-6-oxo-1,4,5,6-tetrahydropyridazin-3-yl)-9-(thiazol-2-yl)-1,3,4,5-tetrahydro-2H-benzo[b]azepin-2-one]
[1]
  IC50: 32.4 nM

## CC1CC(=O)NN=C1c1ccc2nc(Oc3ccc4ncsc4c3)[nH]c2c1 (stereo not shown) [compound 22, 6-(2-(benzo[d]thiazol-6-yloxy)-1H-benzo[d]imidazol-6-yl)-5-methyl-4,5-dihydropyridazin-3 (2H)-one]
[1]
  IC50: 33.1 nM

## CC1CC(=O)NN=C1c1cc(Cl)c2[nH]c(=O)sc2c1 (stereo not shown) [compound 29, 4-chloro-6-(4-methyl-6-oxo-1,4,5,6-tetrahydropyridazin-3-yl)benzo[d]thiazol-2 (3H)-one]
[1]
  IC50: 3.2 nM

## CC1CC(=O)NN=C1c1cc(Br)c2nc(O)ccc2c1 (stereo not shown) [compound 45, 6-(8-bromo-2-hydroxyquinolin-6-yl)-5-methyl-4,5-dihydropyridazin-3 (2H)-one]
[1]
  IC50: 3.2 nM

## CC1CC(=O)NN=C1c1cc(C2CC2)c2nc(O)ccc2c1 (stereo not shown) [compound 48, 6-(8-cyclopropyl-2-hydroxyquinolin-6-yl)-5-methyl-4,5-dihydropyridazin-3 (2H)-one]
[1]
  IC50: 18 nM

## COC1CN(c2nc3ccc(C4=NNC(=O)CC4C)cc3s2)C1 (stereo not shown) [compound 49, 6-(2-(3-methoxyazetidin-1-yl)benzo[d]thiazol-6-yl)-5-methyl-4,5-dihydropyridazin-3 (2H)-one]
[1]
  IC50: 48.6 nM

## O=c1ccc(-c2cc(Cl)c3[nH]c(=O)sc3c2)n[nH]1 [compound 52, 4-chloro-6-(6-oxo-1,6-dihydropyridazin-3-yl)benzo[d]thiazol-2 (3H)-one]
[1]
  IC50: 24.7 nM

## CC1CC(=O)NN=C1c1cc(C#N)c2c(c1)CC(=O)N2 (stereo not shown) [compound 53, 5-(4-methyl-6-oxo-1,4,5,6-tetrahydropyridazin-3-yl)-2-oxoindoline-7-carbonitrile]
[1]
  IC50: 32.7 nM

## C[C@@H]1CC(=O)NN=C1c1cc(F)c2c(c1)CC(=O)N2 [compound 54, (R)-7-fluoro-5-(4-methyl-6-oxo-1,4,5,6-tetrahydropyridazin-3-yl)indolin-2-one]
[1]
  IC50: 7.4 nM

## Cc1cc(C2=NNC(=O)S[C@@H]2C)cc2ccc(O)nc12 [compound 60, (R)-5-(2-hydroxy-8-methylquinolin-6-yl)-6-methyl-3,6-dihydro-2H-1,3,4-thiadiazin-2-one]
[1]
  IC50: 4.7 nM

## CC1SC(=O)NN=C1c1cc(Cl)c2c(c1)CCCC(=O)N2 (stereo not shown) [compound 64, 5-(9-chloro-2-oxo-2,3,4,5-tetrahydro-1H-benzo[b]azepin-7-yl)-6-methyl-3,6-dihydro-2H-1,3,4-thiadiazin-2-one]
[1]
  IC50: 3.2 nM

## CC1SC(=O)NN=C1c1cc(Br)c2c(c1)CC(=O)N2 (stereo not shown) [compound 69, 5-(7-bromo-2-oxoindolin-5-yl)-6-methyl-3,6-dihydro-2H-1,3,4-thiadiazin-2-one]
[1]
  IC50: 10.9 nM

## CC1SC(=O)NN=C1c1cc2c(c(-c3ccccc3)c1)NC(=O)C2 (stereo not shown) [compound 70, 6-methyl-5-(2-oxo-7-phenylindolin-5-yl)-3,6-dihydro-2H-1,3,4-thiadiazin-2-one]
[1]
  IC50: 80.7 nM

## CC1SC(=O)NN=C1c1cc(Cl)c2nc(O)ccc2c1 (stereo not shown) [compound 81, 5-(8-chloro-2-hydroxyquinolin-6-yl)-6-methyl-3,6-dihydro-2H-1,3,4-thiadiazin-2-one]
[1]
  IC50: 3.2 nM

## CC1SC(=O)NN=C1c1cc(Cl)c2c(c1)CS(=O)(=O)N2 (stereo not shown) [compound 82, 5-(7-chloro-2,2-dioxido-1,3-dihydrobenzo[c]isothiazol-5-yl)-6-methyl-3,6-dihydro-2H-1,3,4-thiadiazin-2-one]
[1]
  IC50: 26.4 nM

## Cc1cc(C2=NNC(=O)SC2C)cc2c1NC(=O)CC2 (stereo not shown) [compound 83, 6-methyl-5-(8-methyl-2-oxo-1,2,3,4-tetrahydroquinolin-6-yl)-3,6-dihydro-2H-1,3,4-thiadiazin-2-one]
[1]
  IC50: 3.2 nM

## O=c1[nH]nc(-c2cc(Cl)c3[nH]c(=O)sc3c2)s1 [compound 88, 4-chloro-6-(5-oxo-4,5-dihydro-1,3,4-thiadiazol-2-yl)benzo[d]thiazol-2 (3H)-one]
[1]
  IC50: 29.2 nM

## CC1(C)C(=O)Nc2c(Cl)cc(-c3n[nH]c(=O)s3)cc21 [compound 89, 5-(7-chloro-3,3-dimethyl-2-oxoindolin-5-yl)-1,3,4-thiadiazol-2 (3H)-one]
[1]
  IC50: 25.3 nM
